Patent US20140200137A1, “TREATMENT OF STORED TUBERS WITH COMPOSITIONS OF ALKYL NAPHTHALENES AND HIGHER ALCOHOLS” (1,4 Group, Inc., priority 2013, published 2014)

Legend:
[1] = system: existing sprouts on post-dormant potatoes with peeps and sprouts extant; assay: Comparison of sprout suppressing chemicals applied by thermofogging (Example VII); format: in vivo; settings: for Burn “old”: effect upon old sprouts, up to nine months old; for Burn “old” / Burn “new”: thermofogging at comparable dosages; for Burn “new”: newly emerged sprouts and peeps, generally less than a month
From the text: Various sprout suppressing chemicals were compared for their ability to suppress existing sprouts on post-dormant potatoes with peeps and sprouts extant.
In the above table “Burn old” refers to the effect upon old sprouts, which included sprouts up to nine months old, these being generally more difficult to desiccate, while “burn new” refers to newly emerged sprouts and peeps, generally less than a month or so in existence.

[2] = system: stored potatoes with white peeps showing from the eyes; assay: Thermofogging of 1-nonanol on bulk stored potatoes with white peeps (Example II); format: in vivo; settings: thermofogged at about 500° F., 8 ml for 2 kg of potatoes
Description: Stored potatoes in bulk storage were treated with 1-nonanol (n-nonyl alcohol) via a thermofogger to determine sprout inhibition. The thermofogger was operated at an aerosol chamber temperature of about 500° F. A good stable aerosol was produced. The alcohol was applied at a dosage of 8 ml for 2 kg of potatoes. The system was open so that the actual dosage reaching the potatoes was considerably less than the fogged amount. In a first bulk storage, the potatoes had white “peeps” showing from the eyes.

[3] = system: potatoes with sprouts averaging in excess of about 2 cm, some up to 8 cm or more; assay: Thermofogging on potatoes with very long sprouts (Examples III and IV); format: in vivo; settings: for kill of large sprouts: full strength
Description: In another test, the potatoes were treated with 1-nonanol at the same fogging temperature and dosage for the same period of time to achieve the same application dosage as in Example II. The potatoes in this storage had sprouts averaging in excess of about 2 cm in length. In this experiment, potatoes with very long sprouts, some up to 8 cm or more, were treated 1, 2, and 4 times sequentially with full strength nonanol. This “spray-paint” method was used to try to bring the total amount (rate) of nonanol up to a level capable of killing large sprouts as well as peeps . . . a necessity in commercial settings where sprouts of all sizes exist. […] While this was a small scale test, a whole storage full of potatoes in this condition would likely lead to secondary decays.
The results of Example III led to another experiment where nonanol and DMN were applied.

peeps and sprouts = assay: Fogging of 1-nonanol compared with clove oil in burning peeps and sprouts (Example V); format: in vivo, potatoes; settings: similar dosages
[4] = system: peeps and sprouts of stored potatoes; assay: General observations on treatment of stored potatoes with higher alcohols and 1,4-DMN; format: in vivo; settings: 24 hours after treatment all peeps and sprouts are burned
From the text: Higher alcohols, such as 1-octanol and 1-nonanol, are miscible with 1,4-DMN.
It has been observed that the dormancy-like effect produced upon stored potatoes by 1,4-DMN remains, at least to some degree, even as the residue of 1,4-DMN becomes undetectable. Thus, by proper timing of the last treatment of stored potatoes with 1,4-DMN and a subsequent treatment with 1-octanol, 1-nonanol or 1-hexanol, alcohols which are on the GRAS list, both the washed potatoes and any discharged wash water will have no harmful chemicals present. The action of higher alcohols, such as 1-octanol, 1-nonanol and 1-hexanol, on peeps and sprouts is rapid, so that 24 hours after treatment all peeps and sprouts are “burned.”

potatoes [5] = assay: Thermofogging of 1-octanol on cold and warmer potatoes, damage to skin and flesh (Example IX); format: in vivo
Description: The 1-octanol was applied via an electrically […] thermofogger at a fog temperature within the fogger of about 500° F. to obtain a stable aerosol. The potatoes were examined about 24 hours after treatment. […] The potatoes were cut open at the dark spots. Damage to the flesh of the potatoes existed to a depth of about 5 mm to 25 mm. Potato flesh was otherwise undamaged except under the dark spots.

sprouts on potatoes = assay: Mixtures of 1,4-DMN with octanol at various volumetric ratios, burn of sprouts (Example VIII); format: in vivo; set-up: key: +++: Excellent effect; ++: Very good effect; +: Good effect; —: Negligible effect; settings: total dosage of each mixture constant
From the text: All mixtures provided a more rapid burn of sprouts compared with an equal dosage of octanol or 1,4-DMN alone. The 7:1 ratio of octanol to DMN gave the best results in terms of length of non-sprouting condition before nascent sprouts again appeared.

potatoes [6] = settings: in vivo; cited from earlier work

| Compound | Burn “old” [1] | Burn “new” [1] | results among alcohols tested by Burton (potatoes [6]) | also measured |
| --- | --- | --- | --- | --- |
| Cc1ccc(C)c2ccccc12 [1,4-DMN, 1,4 dimethyl naphthalene] | + | + |  |  |
| CCCCCCCCCCO [1-Decanol] | ++ | ++ |  |  |
| CCCCCCCCCO [1-Nonanol, 1-nonanol] | +++ | +++ |  | damage to potato flesh adjacent the eyes [2]: without any damage to potato flesh; effect on white peeps ([2]; open system): burned to a dark color and were inactivated; negative side effect observed ([3]; four sequential applications): wet, slimy, sprout rot; kill of large sprouts ([3]; four sequential applications): completely killed; kill of large sprouts ([3]; single or double applications): didn't reach a level of nonanol high enough to completely kill these sized sprouts; effectiveness in burning peeps and sprouts relative to clove oil (peeps and sprouts): about four times as effective as clove oil; action on peeps and sprouts [4]: rapid; desiccation of existing peeps and sprouts, ranking in the test ([1]; in vivo): most effectively desiccated existing peeps and sprouts |
| CCCCCCCCO [1-Octanol, 1-octanol] | ++ | +++ |  | depth of damage to the flesh under the dark spots (potatoes [5]; potato, in vivo, 24 h): 5-25 mm; damage to potato skin (potatoes [5]; potatoes at about 36° F., fog about 500° F., examined about 24 hours after treatment): large dark damaged spots; injury to potato skin or flesh (potatoes [5]; potatoes held at 53° F., similar dosage, fogging temperature and rate): did not show injury to the potato skin or to its flesh; action on peeps and sprouts [4]: rapid |
| CCCCCCCCO [1:0, octanol] |  |  |  | Length of Burn (sprouts on potatoes): +++; Rapid Burn (sprouts on potatoes): ++ |
| CCCCC(CC)CO (centres unmarked) [2-ethyl-hexan-1-01] |  |  | Worst results |  |
| CCCCCOC(C)=O [AmylAcetate, amyl acetate] |  | ++ |  |  |
| CCCCCCCCCCCCO [Dodecanol] | −\+ | − |  |  |
| CCCCCCO [Hexanol, 1-hexanol] | + | ++ |  | action on peeps and sprouts [4]: rapid |
| CCCCCO [amyl, amyl alcohol] |  |  | Best results |  |
| CCCCCCO [n-hexyl, n-hexyl alcohol] |  |  | Worst results |  |
| CCCCCCCCCO [nonyl, nonyl alcohol] |  |  | Best results |  |
